One data set concerns the target T1, amylin receptor (Homo sapiens, UniProt P30988).
T1 sequence (P30988 25-474): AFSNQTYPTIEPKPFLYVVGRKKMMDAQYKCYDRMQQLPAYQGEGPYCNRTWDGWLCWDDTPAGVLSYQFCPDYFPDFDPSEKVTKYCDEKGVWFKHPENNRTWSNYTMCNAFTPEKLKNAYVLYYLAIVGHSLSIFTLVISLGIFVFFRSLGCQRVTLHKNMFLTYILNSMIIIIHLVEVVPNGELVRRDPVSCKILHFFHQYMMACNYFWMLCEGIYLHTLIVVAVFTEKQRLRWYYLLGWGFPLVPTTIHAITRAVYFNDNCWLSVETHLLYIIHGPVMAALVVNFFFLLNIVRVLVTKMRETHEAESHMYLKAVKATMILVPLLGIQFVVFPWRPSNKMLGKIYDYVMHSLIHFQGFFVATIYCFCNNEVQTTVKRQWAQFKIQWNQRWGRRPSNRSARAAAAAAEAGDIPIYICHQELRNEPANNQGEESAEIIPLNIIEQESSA
The data set can be described thus: binding selectivity for amylin receptor against the CGRP receptor.

For the next data set, the target named is T2, calcitonin receptors (Homo sapiens, UniProt P30988).
T2 sequence (P30988 25-474): T1 sequence (P30988 25-474)
As to the kind of experiment: binding selectivity for calcitonin receptors against the CGRP receptor.

For a further data set, the system named is NIH/Swiss female mice. As to the kind of experiment: basal glucose lowering assay (Oral Glucose Tolerance Test; OGTT). Format: in vivo, mouse. The following applies: IP at t=-5 min, 4-hour fasted mice, glucose gavage […], blood glucose at t=30 minutes. The procedure:
Polypeptide Conjugates and parent compounds were analyzed in an in vivo basal glucose lowering assay. This assay reflects the conjugate polypeptide's ability to enhance insulin-mediated glucose clearance of orally administered glucose challenge (Oral Glucose Tolerance Test; OGTT). The OGTT is used to diagnose diabetes, although the simpler fasting plasma glucose test, which measures a subject's plasma glucose level after fasting for at least eight hours, is preferred. The following procedure was used: Test compound at various concentrations was injected intraperitoneally (IP) at t=−5 min to 4-hour fasted NIH/Swiss female mice. Glucose gavage (1.5 g/kg) was given at t=0. Sample was taken at t=30 minutes as tail blood glucose using a OneTouch® Ultra® (LifeScan, Inc., Milpitas, Calif.). Significant effects were identified by ANOVA (p<0.05), followed by Dunnett's post test using GraphPad Prism version 4.00 for Windows (GraphPad Software, San Diego Calif.).

For data set [1], the system named is diet-induced obese (DIO) male Sprague Dawley rats. The data set can be described thus: DIO rat 4-week constant sc infusion: body weight. Format: in vivo. The settings on record: 100 nmol/kg/d of previous reference conjugates. How it is done: Various metabolic and PK parameters were evaluated.
Study Design. The Polypeptide Conjugates were tested relative to vehicle (50% DMSO in sterile water) and parent compounds alone and in combination (see Table 1).
Food intake and body weight were measured weekly. Body composition was assessed on day −1 and day 28 using an NMR instrument (Echo Medical Systems, Houston, Tex.). Adiposity (percent fat mass) was defined as the amount of fat mass relative to body weight (fat mass/body weight×100). Blood was collected via tail vein on day 14. On day 28 a sample of blood was drawn via the jugular vein and animals were euthanized by isoflurane overdose. Mini-pumps were immediately removed, animals were subjected to a brief NMR scan, and tissues were collected for future histological examination and preliminary toxicological assessment.
Statistical Analysis. Data were analyzed using one-way analysis of variance (ANOVA) with Newman-Keuls post-hoc comparisons. Significance was assumed for p<0.05. Graphs were generated using Prism 4 for Windows (Graphpad Software, San Diego, Calif.). All data points are expressed as mean±SEM.

The next data set deals with male Sprague Dawley rats. The data set can be described thus: delay of gastric emptying (acetaminophen appearance in plasma). Format: in vivo, rat. The procedure: Polypeptide Conjugates and parent compounds were analyzed for their ability to delay gastric emptying in rats. […] Rats then received an oral gavage of 33 mg acetaminophen/1 ml Orablend (Paddock Laboratories, Inc., MN USA) at t=3.5 hr, 5.5 hr or 7.5 hr post-injection. Blood was collected for measurement of acetaminophen at 4 hr, 6 hr or 8 hr after SC injection. Gastric emptying was assessed by the appearance of acetaminophen in plasma 30 min after oral gavage.

The next data set relates to rats. The data set can be described thus: acute kaolin intake (pica, nausea) and chow intake in rats. Format: in vivo, rat. The following applies: 15 nmol/kg/d, 24 hr post injection. How it is done:
To investigate possible nausea effects of the conjugate polypeptide, acute kaolin intake was measured in rats. Pica behavior (ingestion of dirt/clay) is a marker of nausea in rodents, typically associated with reduced food intake and weight loss. Pica can be assessed by measuring intake of the synthetic clay kaolin. […] Rats were acclimated to kaolin for 3 days as kaolin clay mixed in with regular chow. A 4 hr and a 24 hr baseline kaolin and chow intake were then measured. Subsequently, rats were fasted for approximately 16 hrs after which test compound was injected at the dose indicated below. At 24 hr post injection chow and kaolin consumption was measured.

Results on one sequence are retold here after patent publication US20140066370A1, “Polypeptide Conjugate” (priority 2009, published 2014).

Where only a bound is given, the exact number is not on record here.

Turning to “HGEGTFTSDLSKQMEEEAVRLFIEWLKNGGGKCNTATCVLGRLSQELHRLQTYPRTNT GSNTY-NH2 [Cmpd 3A]”, the “selectivity for amylin receptor against the CGRP receptor” value on amylin receptor is more than 100 fold. The “selectivity for calcitonin receptors against the CGRP receptor” value at calcitonin receptors was more than 280 fold. For the same sequence, the “ED50 in OGTT” value in the data set on NIH/Swiss female mice was found to be 6 nmol/kg. In data set [1], the weight loss is on record as approximately 20%. The “Percent Inhibition of Gastric Emptying 4 hr” value with male Sprague Dawley rats (1 nmol/kg single sc injection, 4 hr) came to 33. Further, in the data set on male Sprague Dawley rats (1 nmol/kg single sc injection, 6 hr), the “Percent Inhibition of Gastric Emptying 6 hr” value worked out at 0. In the data set on male Sprague Dawley rats (1 nmol/kg single sc injection, 8 hr), the “Percent Inhibition of Gastric Emptying 8 hr” value is 0. For the same sequence, the “inhibition of gastric emptying” value with male Sprague Dawley rats (at the time point and doses tested) was “did not significantly inhibit gastric emptying”. In the data set on rats, the Inhibited food intake entry is recorded as “Yes ~20%” and the Kaolin intake is given as 0.5 g.
